Measured values from ChEMBL document CHEMBL1649532, “Trypanocidal activity of 8-methyl-5'-{[(Z)-4-aminobut-2-enyl]-(methylamino)}adenosine (Genz-644131), an adenosylmethionine decarboxylase inhibitor” (Antimicrob Agents Chemother, 2009).
In brackets after ≈: the same amount, converted by molar mass. Activity calls are given as the source filed them. The calls are words filed in the database; no cut-off is given here.

Experiments:
[1] = system: Trypanosoma brucei rhodesiense; experiment: Trypanocidal activity against Trypanosoma brucei rhodesiense KETRI2538 after 48 hrs; type: functional, organism-based; settings: KETRI2538, 48 h
[2] = system: Trypanosoma brucei brucei; experiment: Trypanocidal activity against Trypanosoma brucei brucei EATRO infected in mouse assessed as cure rate at 1 mg/kg, ip QD for 4 days; type: functional; settings: route intraperitoneal
[3] = system: Trypanosoma brucei brucei; experiment: Trypanocidal activity against Trypanosoma brucei brucei EATRO infected in mouse assessed as mean survival time at 2.5 mg/kg, ip BID for 4 days; type: functional; settings: route intraperitoneal
[4] = system: Trypanosoma brucei rhodesiense; experiment: Trypanocidal activity against Trypanosoma brucei rhodesiense KETRI2002 infected in mouse assessed as cure rate at 50 mg/kg, ip BID administered 24 hrs postinfection; type: functional; settings: route intraperitoneal
[5] = system: Trypanosoma brucei brucei; experiment: Trypanocidal activity against Trypanosoma brucei brucei 667 infected in mouse assessed as average day of relapse of trypanosomal infection at 10 mg/kg, ip BID for 21 days; type: functional; settings: route intraperitoneal
[6] = system: Trypanosoma brucei rhodesiense; experiment: Trypanocidal activity against Trypanosoma brucei rhodesiense KETRI2002 infected in mouse assessed as average survival time at 50 mg/kg, ip BID administered 24 hrs postinfection; type: functional; settings: route intraperitoneal
[7] = system: Trypanosoma brucei rhodesiense; experiment: Trypanocidal activity against Trypanosoma brucei rhodesiense KETRI2002 infected in mouse assessed as average survival time at 10 mg/kg, ip BID administered 24 hrs postinfection; type: functional; settings: route intraperitoneal
[8] = system: Trypanosoma brucei brucei; experiment: Trypanocidal activity against Trypanosoma brucei brucei EATRO infected in mouse assessed as protection against trypanosomal infection at 50 mg/kg, ip QD for 4 days; type: functional, organism-based; set-up: dose 50 mg/kg
[9] = system: Trypanosoma brucei rhodesiense; experiment: Trypanocidal activity against Trypanosoma brucei rhodesiense KETRI1992 infected in mouse assessed as average survival time at 25 mg/kg, ip BID administered 24 hrs postinfection; type: functional; settings: route intraperitoneal
[10] = system: Trypanosoma brucei rhodesiense; experiment: Trypanocidal activity against Trypanosoma brucei rhodesiense KETRI243 infected in mouse assessed as average survival time at 10 mg/kg, ip QD administered 24 hrs postinfection; type: functional; settings: route intraperitoneal
[11] = system: Trypanosoma brucei brucei; experiment: Trypanocidal activity against Trypanosoma brucei brucei 667 infected in mouse assessed as average day of relapse of trypanosomal infection at 25 mg/kg, ip BID for 7 days; type: functional; settings: route intraperitoneal
[12] = system: Trypanosoma brucei brucei; experiment: Trypanocidal activity against Trypanosoma brucei brucei EATRO infected in mouse assessed as mean survival time at 10 mg/kg, ip BID for 4 days; type: functional; settings: route intraperitoneal
[13] = system: Trypanosoma brucei rhodesiense; experiment: Trypanocidal activity against Trypanosoma brucei rhodesiense KETRI2002 infected in mouse assessed as average survival time at 50 mg/kg, ip QD administered 24 hrs postinfection; type: functional; settings: route intraperitoneal
[14] = system: Trypanosoma brucei rhodesiense; experiment: Ratio of Kinact to Kiapp for Trypanosoma brucei rhodesiense AdoMetDC
[15] = system: Trypanosoma brucei rhodesiense; experiment: Trypanocidal activity against Trypanosoma brucei rhodesiense KETRI1992 infected in mouse assessed as protection against trypanosomal infection at 25 mg/kg, ip QD administered 24 hrs postinfection; type: functional, organism-based; set-up: dose 25 mg/kg
[16] = system: Trypanosoma brucei brucei; experiment: Trypanocidal activity against Trypanosoma brucei brucei EATRO infected in mouse assessed as protection against trypanosomal infection at 5 mg/kg, ip QD for 4 days; type: functional, organism-based; set-up: dose 5 mg/kg
[17] = system: Trypanosoma brucei brucei; experiment: Trypanocidal activity against Trypanosoma brucei brucei EATRO infected in mouse assessed as protection against trypanosomal infection at 10 mg/kg, ip BID for 4 days; type: functional, organism-based; set-up: dose 10 mg/kg
[18] = system: Trypanosoma brucei brucei; experiment: Trypanocidal activity against Trypanosoma brucei brucei EATRO infected in mouse assessed as mean survival time at 25 mg/kg, ip QD for 4 days; type: functional; settings: route intraperitoneal
[19] = system: Trypanosoma brucei brucei; experiment: Trypanocidal activity against Trypanosoma brucei brucei 667 infected in mouse assessed as average day of relapse of trypanosomal infection at 50 mg/kg, ip BID for 7 days; type: functional; settings: route intraperitoneal
[20] = system: Trypanosoma brucei rhodesiense; experiment: Trypanocidal activity against Trypanosoma brucei rhodesiense KETRI1992 infected in mouse assessed as average survival time at 10 mg/kg, ip BID administered 24 hrs postinfection; type: functional; settings: route intraperitoneal
[21] = system: Trypanosoma brucei brucei; experiment: Trypanocidal activity against Trypanosoma brucei brucei EATRO infected in mouse assessed as mean survival time at 2 mg/kg, ip BID for 4 days; type: functional; settings: route intraperitoneal
[22] = system: Trypanosoma brucei rhodesiense; experiment: Trypanocidal activity against Trypanosoma brucei rhodesiense KETRI2002 infected in mouse assessed as cure rate at 50 mg/kg, ip QD administered 24 hrs postinfection; type: functional; settings: route intraperitoneal
[23] = system: Trypanosoma brucei brucei; experiment: Trypanocidal activity against Trypanosoma brucei brucei EATRO infected in mouse assessed as mean survival time at 25 mg/kg, ip BID for 4 days; type: functional; settings: route intraperitoneal
[24] = system: Trypanosoma brucei brucei; experiment: Trypanocidal activity against Trypanosoma brucei brucei EATRO infected in mouse assessed as protection against trypanosomal infection at 2.5 mg/kg, ip BID for 4 days; type: functional, organism-based; set-up: dose 2.5 mg/kg
[25] = system: Trypanosoma brucei brucei; experiment: Trypanocidal activity against Trypanosoma brucei brucei 667 infected in mouse assessed as average day of relapse of trypanosomal infection at 50 mg/kg, ip BID for 14 days; type: functional; settings: route intraperitoneal
[26] = system: Trypanosoma brucei brucei; experiment: Trypanocidal activity against Trypanosoma brucei brucei EATRO infected in mouse assessed as mean survival time at 2.5 mg/kg, ip QD for 4 days; type: functional; settings: route intraperitoneal
[27] = system: Trypanosoma brucei brucei; experiment: Trypanocidal activity against Trypanosoma brucei brucei EATRO infected in mouse assessed as mean survival time at 1 mg/kg, ip QD for 4 days; type: functional; settings: route intraperitoneal
[28] = system: Trypanosoma brucei rhodesiense; experiment: Trypanocidal activity against Trypanosoma brucei rhodesiense KETRI243 infected in mouse assessed as average survival time at 50 mg/kg, ip QD administered 24 hrs postinfection; type: functional; settings: route intraperitoneal
[29] = system: Trypanosoma brucei rhodesiense; experiment: Trypanocidal activity against Trypanosoma brucei rhodesiense KETRI243 after 48 hrs; type: functional, organism-based; settings: KETRI243, 48 h
[30] = system: Trypanosoma brucei rhodesiense; experiment: Trypanocidal activity against Trypanosoma brucei rhodesiense KETRI243 infected in mouse assessed as average survival time at 50 mg/kg, ip BID administered 24 hrs postinfection; type: functional; settings: route intraperitoneal
[31] = system: Trypanosoma brucei brucei; experiment: Trypanocidal activity against Trypanosoma brucei brucei EATRO infected in mouse assessed as mean survival time at 50 mg/kg, ip BID for 4 days; type: functional; settings: route intraperitoneal
[32] = system: Trypanosoma brucei brucei; experiment: Trypanocidal activity against Trypanosoma brucei brucei 667 infected in mouse assessed as average day of relapse of trypanosomal infection at 10 mg/kg, ip BID for 14 days; type: functional; settings: route intraperitoneal
[33] = system: Trypanosoma brucei brucei; experiment: Trypanocidal activity against Trypanosoma brucei brucei EATRO infected in mouse assessed as protection against trypanosomal infection at 10 mg/kg, ip QD for 4 days; type: functional, organism-based; set-up: dose 10 mg/kg
[34] = system: Trypanosoma brucei brucei; experiment: Trypanocidal activity against Trypanosoma brucei brucei EATRO infected in mouse assessed as mean survival time at 10 mg/kg, ip QD for 4 days; type: functional; settings: route intraperitoneal
[35] = system: Trypanosoma brucei rhodesiense; experiment: Trypanocidal activity against Trypanosoma brucei rhodesiense KETRI1992 infected in mouse assessed as average survival time at 25 mg/kg, ip QD administered 24 hrs postinfection; type: functional; settings: route intraperitoneal
[36] = system: Trypanosoma brucei rhodesiense; experiment: Trypanocidal activity against Trypanosoma brucei rhodesiense KETRI2002 infected in mouse assessed as average survival time at 25 mg/kg, ip BID administered 24 hrs postinfection; type: functional; settings: route intraperitoneal
[37] = system: Trypanosoma brucei rhodesiense; experiment: Trypanocidal activity against Trypanosoma brucei rhodesiense KETRI243 infected in mouse assessed as protection against trypanosomal infection at 25 mg/kg, ip QD administered 24 hrs postinfection; type: functional, organism-based; set-up: dose 25 mg/kg
[38] = system: Trypanosoma brucei brucei; experiment: Trypanocidal activity against Trypanosoma brucei brucei EATRO infected in mouse assessed as protection against trypanosomal infection at 50 mg/kg, ip BID for 4 days; type: functional, organism-based; set-up: dose 50 mg/kg
[39] = system: Trypanosoma brucei rhodesiense; experiment: Trypanocidal activity against Trypanosoma brucei rhodesiense KETRI2002 infected in mouse assessed as average survival time at 10 mg/kg, ip QD administered 24 hrs postinfection; type: functional; settings: route intraperitoneal
[40] = system: Trypanosoma brucei rhodesiense; experiment: Trypanocidal activity against Trypanosoma brucei rhodesiense KETRI1992 infected in mouse assessed as protection against trypanosomal infection at 50 mg/kg, ip BID administered 24 hrs postinfection; type: functional, organism-based; set-up: dose 50 mg/kg

Cc1nc2c(N)ncnc2n1[C@@H]1O[C@H](CN(C)C/C=C\CN)[C@@H](O)[C@H]1O
IC50 [1]: 0.3 ng/mL (≈ 0.825 nM)
Activity [2]: >50%
MST [3]: >35 days
Activity [4]: 80%
MST [5]: 61.8 days
MST [6]: 22 days
MST [7]: 21.5 days
Activity [8]: Active
MST [9]: 23 days
MST [10]: 13.2 days
MST [11]: 61.7 days
MST [12]: >35 days
MST [13]: 21 days
Activity [14]: 7.8 min⁻¹ M⁻¹
Activity [15]: inactive
Activity [16]: Active
Activity [17]: Active
MST [18]: >35 days
MST [19]: 59 days
MST [20]: 20.4 days
MST [21]: >35 days
Activity [22]: 80%
MST [23]: >35 days
Activity [24]: Active
MST [25]: 63.4 days
MST [26]: 21 days
MST [27]: 13.5 days
MST [28]: 17.2 days
IC50 [29]: 3.75 ng/mL (≈ 10.3 nM)
MST [30]: 23.3 days
MST [31]: >35 days
MST [32]: 59.8 days
Activity [33]: Active
MST [34]: >35 days
MST [35]: 18.6 days
MST [36]: 19.3 days
Activity [37]: inactive
Activity [38]: Active
MST [39]: 16 days
Activity [40]: inactive
